This is an account of results in article PMC11510433, “Exploration of the Solubility Hyperspace of Selected Active Pharmaceutical Ingredients in Choline- and Betaine-Based Deep Eutectic Solvents: Machine Learning Modeling and Experimental Validation” (Molecules, 2024).

Read-outs that look alike come from different tables or passages of the source.

On the set-up of series [1]: method as in ref 2017-Zhong-10.1021acs.jced.7b00065. As to conditions: solvent 1-propanol, ref 2017-Zhong-10.1021acs.jced.7b00065, cited from earlier work.
The conditions of series [2]: A:D 1:1, x*DES 1.0 (water 0.00), T 25.0 °C, ref 2024-Cysewski-10.3390molecules29102296, cited from earlier work.
A short description of series [3]: shake-flask solubility of sulfonamides in choline chloride- and betaine-based deep eutectic solvents (new measurements). It is filed as physicochemical. Here is the method: The solubility measurements were preceded by the determination of the calibration curves for the studied sulfonamides. Stock solutions of these compounds were prepared in methanol and subsequently diluted. The obtained series of solutions with decreasing concentrations were then measured spectrophotometrically using an A360 spectrophotometer from AOE Instruments (Shanghai, China) in the wavelength range of 200 nm to 500 nm. Their characteristic wavelengths were determined, and the corresponding absorbance values were plotted against the concentrations of the solutions. Three separate curves were prepared, and the obtained values were averaged. The calibration curves were validated in terms of their linearity, expressed by the determination coefficient R^2, as well as the limits of detection (LOD) and quantification (LOQ).
For determining the solubility of the studied sulfonamides in different eutectic compositions, a standard shake-flask procedure was applied.
The first step in this procedure involved the preparation of the deep eutectic solvents, which was performed by combining a hydrogen bond donor with a hydrogen bond acceptor. The HBA:HBD molar ratio was set to 1:2. […] The eutectics were prepared by weighing appropriate amounts of the two counterparts in glass vessels and heating them until a homogenous solution was obtained.
The samples of sulfonamides in DESs were prepared by adding an excess amount of the solute to the test tube, followed by an addition of the specific eutectic. The saturated solutions obtained in this manner were placed in an Orbital Shaker Incubator ES-20/60 from Biosan (Riga, Latvia) and heated at 25 °C, 30 °C, 35 °C, or 40 °C for 24 h with stirring at 60 rev/min. Before the measurements, the samples were filtered using a 0.22 µm pore-size PTFE syringe filter. The spectra of the filtered solutions were recorded after the dilution with methanol in the 200 nm–500 nm wavelength range with a 1 nm resolution. […] The absorbance values found at the characteristic wavelengths were used together with the linear regression equations to calculate the concentration of the considered solutes. Simultaneously, for the computation of the mole fraction solubility, the density of the samples was determined by weighing 1 mL of the sample on a RADWAG (Radom, Poland) AS 110 R2.PLUS analytical balance with 0.1 mg precision. Three separate samples were measured for each system, and the values were averaged.

On the set-up of series [4]: method as in ref 2014-Delgado-10.1007s10953-014-0169-0. As to conditions: 1-Propanol + water, ref 2014-Delgado-10.1007s10953-014-0169-0, cited from earlier work.
Where [5] appears, read: best-performing ChCl-TEG system, 1:2, 25 °C.

With `Cn1c(=O)c2c(ncn2C)n(C)c1=O` [caffeine], the “log(x1)exp” value is -2.932 in series [1] (T 14.86 °C), -2.752 in series [1] (T 24.96 °C) and -2.550 in series [1] (T 34.94 °C).
Turning to `CC(C)Cc1ccc(C(C)C(=O)O)cc1` (stereo not shown) [ibuprofen], the “log(x1)exp” value is recorded as -0.616 in series [2] (choline chloride + DEG), -0.793 in series [2] (choline chloride + P2D) and -0.580 in series [2] (choline chloride + TEG).
Consider `CCCN(CCC)S(=O)(=O)c1ccc(C(=O)O)cc1` [probenecid], for which the Mole fraction solubility in series [3] (setting [5]) turned out to be 0.00124 mole fraction.
In the case of `Cc1cc(C)nc(NS(=O)(=O)c2ccc(N)cc2)n1` [sulfamethazine], the “log(x1)exp” value was -4.226 in series [4] (x2* 0.0322, x3* 0.97, T 20.00 °C); -4.133 in series [4] (x2* 0.0322, x3* 0.97, T 25.00 °C); -4.044 in series [4] (x2* 0.0322, x3* 0.97, T 30.00 °C).
As for `O=C(O)c1cc(/N=N/c2ccc(S(=O)(=O)Nc3ccccn3)cc2)ccc1O` [sulfasalazine], the Mole fraction solubility was 0.67(±0.09) mole fraction ∙10^4 in series [3] (DES BI-DEG, HBA:HBD 1:2, 25°C); 0.70(±0.08) mole fraction ∙10^4 in series [3] (DES BI-DEG, HBA:HBD 1:2, 30°C); 0.75(±0.06) mole fraction ∙10^4 in series [3] (DES BI-DEG, HBA:HBD 1:2, 35°C); 0.79(±0.05) mole fraction ∙10^4 in series [3] (DES BI-DEG, HBA:HBD 1:2, 40°C); 0.55(±0.07) mole fraction ∙10^4 in series [3] (DES BI-ETG, HBA:HBD 1:2, 25°C); 0.58(±0.02) mole fraction ∙10^4 in series [3] (DES BI-ETG, HBA:HBD 1:2, 30°C). Also, the Mole fraction solubility in series [3] (DES BI-ETG, HBA:HBD 1:2, 35°C) is on record as 0.62(±0.06) mole fraction ∙10^4; in series [3] (DES BI-ETG, HBA:HBD 1:2, 40°C), 0.67(±0.08) mole fraction ∙10^4; in series [3] (DES BI-P2D, HBA:HBD 1:2, 25°C), 0.41(±0.06) mole fraction ∙10^4; in series [3] (DES BI-P2D, HBA:HBD 1:2, 30°C), 0.46(±0.10) mole fraction ∙10^4; in series [3] (DES BI-P2D, HBA:HBD 1:2, 35°C), 0.49(±0.08) mole fraction ∙10^4; in series [3] (DES BI-P2D, HBA:HBD 1:2, 40°C), 0.52(±0.04) mole fraction ∙10^4. Also, the Mole fraction solubility in series [3] (DES BI-TEG, HBA:HBD 1:2, 25°C) is recorded as 0.69(±0.04) mole fraction ∙10^4; in series [3] (DES BI-TEG, HBA:HBD 1:2, 30°C) it was 0.72(±0.02) mole fraction ∙10^4; in series [3] (DES BI-TEG, HBA:HBD 1:2, 35°C), 0.77(±0.09) mole fraction ∙10^4; in series [3] (DES BI-TEG, HBA:HBD 1:2, 40°C) it was 0.81(±0.07) mole fraction ∙10^4; in series [3] (DES ChCl-DEG, HBA:HBD 1:2, 25°C), 0.71(±0.09) mole fraction ∙10^4; in series [3] (DES ChCl-DEG, HBA:HBD 1:2, 30°C), 0.75(±0.07) mole fraction ∙10^4. The Mole fraction solubility is 0.80(±0.14) mole fraction ∙10^4 in series [3] (DES ChCl-DEG, HBA:HBD 1:2, 35°C); 0.83(±0.02) mole fraction ∙10^4 in series [3] (DES ChCl-DEG, HBA:HBD 1:2, 40°C); 0.62(±0.09) mole fraction ∙10^4 in series [3] (DES ChCl-ETG, HBA:HBD 1:2, 25°C); 0.65(±0.01) mole fraction ∙10^4 in series [3] (DES ChCl-ETG, HBA:HBD 1:2, 30°C); 0.69(±0.06) mole fraction ∙10^4 in series [3] (DES ChCl-ETG, HBA:HBD 1:2, 35°C); 0.72(±0.08) mole fraction ∙10^4 in series [3] (DES ChCl-ETG, HBA:HBD 1:2, 40°C). Besides, the Mole fraction solubility in series [3] (DES ChCl-P2D, HBA:HBD 1:2, 25°C) is 0.50(±0.08) mole fraction ∙10^4; in series [3] (DES ChCl-P2D, HBA:HBD 1:2, 30°C), 0.53(±0.03) mole fraction ∙10^4; in series [3] (DES ChCl-P2D, HBA:HBD 1:2, 35°C), 0.56(±0.07) mole fraction ∙10^4; in series [3] (DES ChCl-P2D, HBA:HBD 1:2, 40°C) it was 0.59(±0.01) mole fraction ∙10^4; in series [3] (DES ChCl-TEG, HBA:HBD 1:2, 25°C), 0.75(±0.05) mole fraction ∙10^4; in series [3] (DES ChCl-TEG, HBA:HBD 1:2, 30°C), 0.78(±0.07) mole fraction ∙10^4. Further, the Mole fraction solubility in series [3] (DES ChCl-TEG, HBA:HBD 1:2, 35°C) is recorded as 0.82(±0.01) mole fraction ∙10^4; in series [3] (DES ChCl-TEG, HBA:HBD 1:2, 40°C), 0.86(±0.02) mole fraction ∙10^4; in series [3] (setting [5]), 0.000075 mole fraction.
